Assay results: patent US20170121322A1, “BET-PROTEIN INHIBITING 3,4-DIHYDROPYRIDO[2,3-B]PYRAZINONES WITH META-SUBSTITUTED AROMATIC AMINO- OR ETHER GROUPS” (Bayer Pharma Aktiengesellschaft, priority 2014, published 2017)

Legend:
B16F10 cells = assay: Cell proliferation assay B16F10 (alamarBlue); assay type: cell-based; conditions: Mus musculus, B16-F10, melanoma (BRAF wild-type) cells, 96 hours
Procedure: (§1) In accordance with the invention, the ability of the substances to inhibit cell proliferation was determined. Cell viability was determined by means of the alamarBlue® reagent (Invitrogen) in a Victor X3 Multilabel Reader (Perkin Elmer). The excitation wavelength was 530 nm and the emission wavelength […].
The B16F10 cells (ATCC, CRL-6475) were seeded at a concentration of 300-500 cells/well in 100 μl of growth medium (DMEM with phenol red, 10% FCS) on 96-well microtitre plates.
(§2) After overnight incubation at 37° C., the fluorescence values (CI values) were determined. Then the plates were treated with various substance dilutions (1E-5 M, 3E-6 M, 1E-6 M, 3E-7 M, 1E-7 M, 3E-8 M, 1E-8 M) and incubated at 37° C. over 96 hours (MOLM-13, B16F10, CHL-1 cells) or 120 hours (MOLP-8 cells). Subsequently, the fluorescence values were determined (CO values). For the data analysis, the CI values were subtracted from the CO values and the results were compared between cells which had been treated with various dilutions of the substance or only with buffer solution. The IC50 values (substance concentration needed for 50% inhibition of cell proliferation) were calculated therefrom.
(§3) The substances were tested in the cell lines in Table 2, which represent the indications specified by way of example: […]

MOLM-13 cells = assay: Cell proliferation assay MOLM-13, method 1 (alamarBlue); assay type: cell-based; conditions: Homo sapiens, acute myeloid leukaemia cells, 4000 cells/well, 96-well, 96 hours
Procedure: as §1
The MOLM-13 cells (DSMZ, ACC 554) were seeded at a concentration of 4000 cells/well in 100 μl of growth medium (RPMI1640, 10% FCS) on 96-well microtitre plates (method 1).
as §2, §3

CHL-1 cells = assay: Cell proliferation assay CHL-1 (alamarBlue); assay type: cell-based; conditions: Homo sapiens, melanoma (BRAF wild-type) cells, 96 hours
Procedure: as §1
The CHL-1 cells (ATCC, CRL-9446) were seeded at a concentration of 1000 cells/well in 100 μl of growth medium (DMEM with glutamine, 10% FCS) on 96-well microtitre plates.
as §2, §3

[1] = molecular target: T1, BRD4 bromo domain 1 [BRD4(1)] (Homo sapiens, UniProt O60885); assay: BRD4(1)/acetylated peptide H4 TR-FRET binding assay; conditions: His6-BRD4(1) (aa 67-152) vs acetylated histone H4 peptide
T1 construct: N-terminally His6-tagged BRD4(1) (amino acids 67-152); made in house; host or cells: E. coli
Excerpt: To assess the BRD4(1) binding strength of the substances described in this application, the ability thereof to inhibit the interaction between BRD4(1) and acetylated histone H4 in a dose-dependent manner was quantified.
For this purpose, a time-resolved fluorescence resonance energy transfer (TR-FRET) assay was used, which measures the binding between N-terminally His6-tagged BRD4(1) (amino acids 67-152) and a synthetic acetylated histone H4 (Ac-H4) peptide with sequence GRGK(Ac)GGK(Ac)GLGK(Ac)GGAK(Ac)RHGSGSK-biotin. The recombinant BRD4(1) protein produced in-house according to Filippakopoulos et al., Cell, 2012, 149:214-231 was expressed in E. coli and purified by means of (Ni-NTA) affinity and (Sephadex G-75) size exclusion chromatography. The Ac-H4 peptide can be purchased, for example, from Biosyntan (Berlin, Germany).
In the assay, typically 11 different concentrations of each substance (0.1 nM, 0.33 nM, 1.1 nM, 3.8 nM, 13 nM, 44 nM, 0.15 μM, 0.51 μM, 1.7 μM, 5.9 μM and 20 μM) were analysed as duplicates on the same microtitre plate. For this purpose, 100-fold concentrated solutions in DMSO were prepared by serial dilutions (1:3.4) of a 2 mM stock solution into a clear, 384-well microtitre plate (Greiner Bio-One, Frickenhausen, Germany). From this, 50 nl were transferred into a black test plate (Greiner Bio-One, Frickenhausen, Germany). The test was started by the addition of 2 μl of a 2.5-fold concentrated BRD4(1) solution (final concentration typically 10 nM in the 5 μl of reaction volume) in aqueous assay buffer [50 mM HEPES pH 7.5, 50 mM sodium chloride (NaCl), 0.25 mM CHAPS and 0.05% serum albumin (BSA)] to the substances in the test plate. This was followed by a 10-minute incubation step at 22° C. for the pre-equilibration of putative complexes between BRD4(1) and the substances. Subsequently, 3 μl of a solution of 1.67 times the concentration (in assay buffer) consisting of Ac-H4 peptide (83.5 nM) and TR-FRET detection reagents [16.7 nM anti-6His-XL665 and 3.34 nM streptavidin cryptate (both from Cisbio Bioassays, Codolet, France), and 668 mM potassium fluoride (KF)] were added.
The mixture was then incubated in the dark at 22° C. for one hour and then at 4° C. for at least 3 hours and for no longer than overnight. The formation of BRD4(1)/Ac-H4 complexes was determined by the measurement of the resonance energy transfer from the streptavidin-Eu cryptate to the anti-6His-XL665 antibody present in the reaction. For this purpose, the fluorescence emission was measured at 620 nm and 665 nm after excitation at 330-350 nm in a TR-FRET measuring instrument, for example a Rubystar or Pherastar (both from BMG Lab Technologies, Offenburg, Germany) or a Viewlux (Perkin-Elmer). The ratio of the emissions at 665 nm and at 622 nm was taken as an indicator of the amount of BRD4(1)/Ac-H4 complexes formed.
The data (ratios) obtained were normalized, with 0% inhibition corresponding to the mean from the measurements for a set of controls (typically 32 data points) in which all the reagents were present. In these, in place of test substances, 50 nl of DMSO (100%) were used. Inhibition of 100% corresponded to the mean from the measurements for a set of controls (typically 32 data points) in which all the reagents except BRD4(1) were present. The IC50 was determined by regression analysis based on a 4-parameter equation (minimum, maximum, IC50, Hill; Y=Max+(Min−Max)/(1+(X/IC50)Hill).

Row | SMILES | IC50 (B16F10 cells) [nM] | IC50 (MOLM-13 cells) [nM] | IC50 [1] [nM] | IC50 (CHL-1 cells) [nM]
1 | CC(C)S(=O)(=O)c1cccc(Nc2ccc3c(n2)N(C2CCN(C)CC2)[C@H](C)C(=O)N3C)c1 [Example 19, (3R)-6-{[3-(Isopropylsulphonyl)phenyl]amino}-1,3-dimethyl-4-(1-methylpiperidin-4-yl)-3,4-dihydropyrido[2,3-b]pyrazin-2(1H)-one] | 45 | 13 | 15 | 17
2 | CC(C)S(=O)(=O)c1ccc(OC(F)(F)F)c(Nc2ccc3c(n2)N(C2CCN(C)CC2)[C@H](C)C(=O)N3C)c1 [Example 20, (3R)-6-{[5-(Isopropylsulphonyl)-2-(trifluoromethoxy)phenyl]amino}-1,3-dimethyl-4-(1-methylpiperidin-4-yl)-3,4-dihydropyrido[2,3-b]pyrazin-2(1H)-one] | 49 | 19 | 18 | 20
3 | COc1ccc(S(=O)(=O)C(F)(F)F)cc1Nc1ccc2c(n1)N(C1CCN(C)CC1)[C@H](C)C(=O)N2C [Example 21, (3R)-6-({2-Methoxy-5-[(trifluoromethyl)sulphonyl]phenyl}amino)-1,3-dimethyl-4-(1-methylpiperidin-4-yl)-3,4-dihydropyrido[2,3-b]pyrazin-2(1H)-one] | 52 | 16 | 23 | 16
4 | COc1ccc(S(=O)(=O)C2CCOCC2)cc1Nc1ccc2c(n1)N(C1CCN(C)CC1)[C@H](C)C(=O)N2C [Example 22, (3R)-6-{[2-Methoxy-5-(tetrahydro-2H-pyran-4-ylsulphonyl)phenyl]amino}-1,3-dimethyl-4-(1-methylpiperidin-4-yl)-3,4-dihydropyrido[2,3-b]pyrazin-2(1H)-one] | 140 | 99 | 23 | 21
5 | COc1ccc(S(=O)(=O)C(C)C)cc1Nc1ccc2c(n1)N(C1CCNCC1)[C@H](C)C(=O)N2C [Example 26, (3R)-6-{[5-(Isopropylsulphonyl)-2-methoxyphenyl]amino}-1,3-dimethyl-4-(piperidin-4-yl)-3,4-dihydropyrido[2,3-b]pyrazin-2(1H)-one] | 147 | 10 | 19 | 22
6 | COc1ccc(S(C)(=O)=O)cc1Nc1ccc2c(n1)N(C1CCNCC1)[C@H](C)C(=O)N2C [Example 27, (3R)-6-{[2-Methoxy-5-(methylsulphonyl)phenyl]amino}-1,3-dimethyl-4-(piperidin-4-yl)-3,4-dihydropyrido[2,3-b]pyrazin-2(1H)-one] | – | 69 | 54 | 311
7 | COc1ccc(S(=O)(=O)C(C)C)cc1Nc1ccc2c(n1)N(C1CCN(CC(F)(F)F)CC1)[C@H](C)C(=O)N2C [Example 28, (3R)-6-{[5-(Isopropylsulphonyl)-2-methoxyphenyl]amino}-1,3-dimethyl-4-[1-(2,2,2-trifluoroethyl)piperidin-4-yl]-3,4-dihydropyrido[2,3-b]pyrazin-2(1H)-one] | 21 | 26 | 24 | 25
8 | COc1ccc(S(=O)(=O)C(C)C)cc1Nc1ccc2c(n1)N(C1CCN(CC(F)F)CC1)[C@H](C)C(=O)N2C [Example 29, (3R)-4-[1-(2,2-Difluoroethyl)piperidin-4-yl]-6-{[5-(isopropylsulphonyl)-2-methoxyphenyl]amino}-1,3-dimethyl-3,4-dihydropyrido[2,3-b]pyrazin-2(1H)-one] | 40 | – | 24 | –

Continued, in another order:

Row | IC50 (B16F10 cells) [nM] | IC50 (MOLM-13 cells) [nM] | IC50 [1] [nM] | SMILES | IC50 (CHL-1 cells) [nM]
9 | – | 14 | 23 | COc1ccc(S(=O)(=O)C(C)C)cc1Nc1ccc2c(n1)N(C1CCN(CCC(F)(F)F)CC1)[C@H](C)C(=O)N2C [Example 31, (3R)-6-{[5-(Isopropylsulphonyl)-2-methoxyphenyl]amino}-1,3-dimethyl-4-[1-(3,3,3-trifluoropropyl)piperidin-4-yl]-3,4-dihydropyrido[2,3-b]pyrazin-2(1H)-one] | 12
10 | 32 | 32 | 22 | COc1ccc(S(=O)(=O)C2CCOCC2)cc1Nc1ccc2c(n1)N(C1CCOCC1)[C@H](C)C(=O)N2C [Example 34, (3R)-6-{[2-Methoxy-5-(tetrahydro-2H-pyran-4-ylsulphonyl)phenyl]amino}-1,3-dimethyl-4-(tetrahydro-2H-pyran-4-yl)-3,4-dihydropyrido[2,3-b]pyrazin-2(1H)-one] | 30
11 | 16 | 12 | 32 | COc1ccc(S(=O)(=O)C2CCC2)cc1Nc1ccc2c(n1)N(C1CCOCC1)[C@H](C)C(=O)N2C [Example 35, (3R)-6-{[5-(Cyclobutylsulphonyl)-2-methoxyphenyl]amino}-1,3-dimethyl-4-(tetrahydro-2H-pyran-4-yl)-3,4-dihydropyrido[2,3-b]pyrazin-2(1H)-one] | 10
12 | 16 | 32 | 45 | CC(C)S(=O)(=O)c1ccc(OC(F)(F)F)c(Nc2ccc3c(n2)N(C2CCOCC2)[C@H](C)C(=O)N3C)c1 [Example 38, (3R)-6-{[5-(Isopropylsulphonyl)-2-(trifluoromethoxy)phenyl]amino}-1,3-dimethyl-4-(tetrahydro-2H-pyran-4-yl)-3,4-dihydropyrido[2,3-b]pyrazin-2(1H)-one] | 24
13 | 84 | 137 | 46 | COc1ccc(S(=O)(=O)C(F)(F)F)cc1Nc1ccc2c(n1)N(C1CCOCC1)[C@H](C)C(=O)N2C [Example 39, (3R)-6-({2-Methoxy-5-[(trifluoromethyl)sulphonyl]phenyl}amino)-1,3-dimethyl-4-(tetrahydro-2H-pyran-4-yl)-3,4-dihydropyrido[2,3-b]pyrazin-2(1H)-one] | –
14 | 269 | 121 | 63 | COc1cc(Nc2ccc3c(n2)N(C2CCOCC2)[C@H](C)C(=O)N3C)cc(S(C)(=O)=O)c1 [Example 40, (3R)-6-{[3-Methoxy-5-(methylsulphonyl)phenyl]amino}-1,3-dimethyl-4-(tetrahydro-2H-pyran-4-yl)-3,4-dihydropyrido[2,3-b]pyrazin-2(1H)-one] | –
